This experiment relates to CD2F1 mice, ip Colon 26 adenocarcinoma, median survival T/C. As to the kind of experiment: NCI In Vivo Anticancer Drug Screen. Data for tumor model Colon 26 Adenocarcinoma (intraperitoneal) in CD2F1 (CDF1) mice. To be noted: endpoint: median survival time, higher = longer survival. As to the method:
The antitumor activity of compounds was measured in mice bearing transplantable tumors. Survival or tumor size were measured and the results are expressed as the measurement made in the treated group (T) divided by the measurement made in the vehicle treated control group (C). The tumor model used in this assay is Colon 26 Adenocarcinoma (intraperitoneal) in CD2F1 (CDF1) mice

Setting [1] is: dose: 25.0 mg/kg/injection, schedule: Q04DX003 (ip), vehicle: Klucel (hydroxypropylcellulose) (HPC).
The mark [2] stands for this setting: dose: 50.0 mg/kg/injection, schedule: Q04DX003 (ip), vehicle: Klucel (hydroxypropylcellulose) (HPC).
Setting [3] is: dose: 0.5 mg/kg/injection, schedule: Q04DX003 (ip), vehicle: saline.
[4] abbreviates: dose: 1.0 mg/kg/injection, schedule: Q04DX003 (ip), vehicle: saline.
Setting [5] is: dose: 12.5 mg/kg/injection, schedule: Q04DX003 (ip), vehicle: saline with Tween-80.
The mark [6] stands for this setting: dose: 25.0 mg/kg/injection, schedule: Q04DX003 (ip), vehicle: saline with Tween-80.
Setting [7] is: dose: 50.0 mg/kg/injection, schedule: Q04DX003 (ip), vehicle: saline with Tween-80.

Where “and” joins values, the source holds several entries; their conditions need not be identical. Identical values can stand only once. Toxic doses and inconclusive results are not listed. *1 amine or outer side, *2 acyl side, *3 side chain or, on linkers, in order; H or OH if unused. Where a SMILES comes first, the peptide text is derived from it. Bridges are numbered along the chain shown (N, C = ends). Roman numbers before positions name the chains, in order. [ ]: non-standard residue; d: D form. Actinocin(9to1) = Cc1c2oc3c(C)ccc(C(=O)[*:1])c3nc-2c(C(=O)[*:2])c(N)c1=O; NMeV = CN[CH](C(=O)O)C(C)C; Aze = O=C(O)[CH]1CCN1; Sar = CNCC(=O)O

On to `Clc1ccc(C2SC=Cc3ccccc32)cc1` (stereo not drawn), for which the T/C runs as follows: (dose: 3.12 mg/kg/injection, schedule: Q04DX002 (ip), vehicle: Klucel (hydroxypropylcellulose) (HPC)) 105 % of control; under setting [1], 99 % of control; under setting [2], 103 % of control; (dose: 62.5 mg/kg/injection, schedule: Q04DX002 (ip), vehicle: Klucel (hydroxypropylcellulose) (HPC)) 100 % of control; (dose: 100.0 mg/kg/injection, schedule: Q04DX003 (ip), vehicle: Klucel (hydroxypropylcellulose) (HPC)) 97 % of control; (dose: 125.0 mg/kg/injection, schedule: Q04DX002 (ip), vehicle: Klucel (hydroxypropylcellulose) (HPC)) 98 % of control. Moreover, the T/C reads like this: (dose: 200.0 mg/kg/injection, schedule: Q04DX003 (ip), vehicle: Klucel (hydroxypropylcellulose) (HPC)) 105 % of control; (dose: 250.0 mg/kg/injection, schedule: Q04DX002 (ip), vehicle: Klucel (hydroxypropylcellulose) (HPC)) 96 % of control; (dose: 500.0 mg/kg/injection, schedule: Q04DX002 (ip), vehicle: Klucel (hydroxypropylcellulose) (HPC)) 100 % of control.

For `COc1ccc(CC2C(=O)NC(C)C(=O)N(C)C3Cc4ccc(cc4)Oc4cc(ccc4O)CC(C(=O)NC(C)C(=O)NC(C)C(=O)N2C)N(C)C3=O)cc1` (stereo not drawn), the T/C was 97 % of control under setting [3]; 98 % of control under setting [4]; 87 % of control (dose: 2.0 mg/kg/injection, schedule: Q04DX003 (ip), vehicle: saline); 99 % of control (dose: 2.59 mg/kg/injection, schedule: Q04DX003 (ip), vehicle: other); 103 % of control (dose: 4.32 mg/kg/injection, schedule: Q04DX003 (ip), vehicle: other); 112 % of control (dose: 7.2 mg/kg/injection, schedule: Q04DX003 (ip), vehicle: other). Further, where the note is “dose: 12.0 mg/kg/injection, schedule: Q04DX003 (ip), vehicle: other”, the T/C is 113 % of control.

Regarding `COC(C(=O)C(O)C(C)O)C1CC2C=C3C=C(OC4CC(OC5CC(O)C(OC)C(C)O5)C(OC(C)=O)C(C)O4)C(C)C(=O)C3=C(O)C2=C(O)C1OC1CC(OC2CC(OC3CC(C)(O)C(O)C(C)O3)C(O)C(C)O2)C(O)C(C)O1` (stereo not drawn), the T/C (dose: 0.5 mg/kg/injection, schedule: Q04DX003 (ip), vehicle: saline with Tween-80) is 100 % of control; the T/C (dose: 1.0 mg/kg/injection, schedule: Q04DX003 (ip), vehicle: saline with Tween-80) is 99 % of control; the T/C (dose: 2.0 mg/kg/injection, schedule: Q04DX003 (ip), vehicle: saline with Tween-80) is 99 % of control; the T/C (dose: 4.0 mg/kg/injection, schedule: Q04DX003 (ip), vehicle: saline with Tween-80) was 96 % of control; the T/C (dose: 8.0 mg/kg/injection, schedule: Q04DX003 (ip), vehicle: saline with Tween-80) was 102 % of control.

On to `Cc1c2oc3c(C)ccc(C(=O)NC4C(=O)NC(C(C)C)C(=O)N5CCC5C(=O)N(C)CC(=O)N(C)C(C(C)C)C(=O)OC4C)c3nc-2c(C(=O)NC2C(=O)NC(C(C)C)C(=O)N3CCC3C(=O)N(C)CC(=O)N(C)C(C(C)C)C(=O)OC2C)c(N)c1=O` (stereo not drawn) (I: TV[Aze][Sar][NMeV] / II: TV[Aze][Sar][NMeV]; ester I:1-I:C, II:1-II:C; linker I:N-II:N via Actinocin(9to1); configuration not given here), for which the T/C (dose: 270.0 micrograms/kg/injection, schedule: Q04DX003 (ip), vehicle: saline + alcohol) is 114 % of control.

Regarding `CCOC(C)C(/C=N/NC(N)=S)=NNC(N)=S` (stereo not drawn), the T/C is 98 % of control under setting [5]; 104 % of control (dose: 12.5 mg/kg/injection, schedule: Q04DX003 (ip), vehicle: saline); 98 % of control under setting [6]; 93 % of control (dose: 25.0 mg/kg/injection, schedule: Q04DX003 (ip), vehicle: saline); 100 % of control under setting [7]; 113 % of control (dose: 50.0 mg/kg/injection, schedule: Q04DX003 (ip), vehicle: saline). For the same molecule, the T/C is 99 % of control (dose: 100.0 mg/kg/injection, schedule: Q04DX003 (ip), vehicle: saline with Tween-80); 97 % of control (dose: 200.0 mg/kg/injection, schedule: Q04DX003 (ip), vehicle: saline with Tween-80); 97 % of control (dose: 400.0 mg/kg/injection, schedule: Q04DX003 (ip), vehicle: saline with Tween-80).

Regarding `COc1ccc2c(c1)CCC(c1ccccc1)=C2c1ccc(OCCN2CCCC2)cc1`, the T/C was 115 % of control (dose: 6.25 mg/kg/injection, schedule: Q01DX009 (ip), vehicle: saline); 111 % of control (dose: 12.5 mg/kg/injection, schedule: Q01DX009 (ip), vehicle: saline); 112 % of control (dose: 25.0 mg/kg/injection, schedule: Q01DX009 (ip), vehicle: saline).

Turning to `OC(C1CO1)C(O)C1CO1` (stereo not drawn), the T/C was 110 % of control under setting [3]; 109 % of control under setting [4]; 165 % of control (dose: 7.6 mg/kg/injection, schedule: Q07DX003 (iv), vehicle: saline); 338 % of control (dose: 8.0 mg/kg/injection, schedule: Q04DX003 (ip), vehicle: saline); 193 % of control (dose: 12.0 mg/kg/injection, schedule: Q07DX003 (iv), vehicle: saline).

For the molecule `C=C1C(=O)OC2CC1CCC1(C)OC1CCC(C)=CCCC2(C)O` (stereo not drawn), the T/C (dose: 22.5 mg/kg/injection, schedule: Q04DX002 (ip), vehicle: Klucel (hydroxypropylcellulose) (HPC)) was 105 % of control; the T/C (dose: 45.0 mg/kg/injection, schedule: Q04DX002 (ip), vehicle: Klucel (hydroxypropylcellulose) (HPC)) was 97 % of control; the T/C (dose: 90.0 mg/kg/injection, schedule: Q04DX002 (ip), vehicle: Klucel (hydroxypropylcellulose) (HPC)) was 89 % of control.

Regarding `O=C1c2ccccc2C(=O)c2c(NCCN3CCNCC3)ccc(NCCN3CCNCC3)c21`, the T/C (dose: 4.0 mg/kg/injection, schedule: Q01DX009 (ip), vehicle: acid diluted with saline) was 106 % of control; the T/C (dose: 8.0 mg/kg/injection, schedule: Q01DX009 (ip), vehicle: acid diluted with saline) was 114 % of control; the T/C (dose: 16.0 mg/kg/injection, schedule: Q01DX009 (ip), vehicle: acid diluted with saline) is 114 % of control.

In the case of `COc1cccc2c1C(=O)c1c(O)c3c(c(O)c1C2=O)C[C@@](O)(/C(C)=N\NC(=O)CO)C[C@@H]3OC1CC(N)C(O)C(C)O1` (stereo partly drawn), the T/C is 104 % of control (dose: 4.5 mg/kg/injection, schedule: Q07DX003 (iv), vehicle: other); 101 % of control (dose: 7.0 mg/kg/injection, schedule: Q07DX003 (iv), vehicle: other); 108 % of control (dose: 11.0 mg/kg/injection, schedule: Q07DX003 (iv), vehicle: other); 104 % of control (dose: 17.0 mg/kg/injection, schedule: Q07DX003 (iv), vehicle: other).

On to `CCOC(=O)Nc1cc2c(c(N)n1)N=C(CN(C)c1ccccc1)CN2`, for which the T/C is 108 % of control (dose: 6.25 mg/kg/injection, schedule: Q04DX003 (ip), vehicle: Klucel (hydroxypropylcellulose) (HPC)); 177 % of control under setting [1]; 119 % of control under setting [2].

Turning to `O=c1[nH]c(=O)n(C2CC(O)C(CO)O2)cc1F` (stereo not drawn), the T/C by setting is: (dose: 80.0 mg/kg/injection, schedule: Q07DX003 (ip), vehicle: saline) 155 % of control; (dose: 120.0 mg/kg/injection, schedule: Q07DX003 (ip), vehicle: saline) 161 % of control and 171 % of control; (dose: 190.0 mg/kg/injection, schedule: Q07DX003 (ip), vehicle: saline) 150 % of control and 167 % of control; (dose: 280.0 mg/kg/injection, schedule: Q07DX003 (ip), vehicle: saline) 167 % of control and 169 % of control.

In the case of `COC(=O)C(F)C(Br)C(=O)OC` (stereo not drawn), the T/C runs as follows: (dose: 6.25 mg/kg/injection, schedule: Q04DX003 (ip), vehicle: saline with Tween-80) 102 % of control; under setting [5], 102 % of control; under setting [6], 111 % of control; under setting [7], 114 % of control.

For the molecule `C=C(C)[C@]12CC(C)C34OC(/C=C\C=C\CCCCCCCCC)(O[C@@H]1[C@@H]3[C@@H]1O[C@]1(CO)[C@@H](O)[C@]1(O)C(=O)C(C)=C[C@@H]41)O2` (stereo partly drawn), the T/C is 102 % of control (dose: 0.18 mg/kg/injection, schedule: Q04DX003 (ip), vehicle: distilled water + alcohol); 105 % of control (dose: 0.37 mg/kg/injection, schedule: Q04DX003 (ip), vehicle: distilled water + alcohol); 114 % of control (dose: 0.75 mg/kg/injection, schedule: Q04DX003 (ip), vehicle: distilled water + alcohol).

The record behind these values is PubChem BioAssay AID210 (DTP/NCI, 2004).
